Experimental data as given in patent US5077204A, “Yeast endopeptidase for basic amino-acid site cleavage, preparation and use” (Chiron Corporation, priority 1988, dated 1991).
Peptide text beside a SMILES is read from it. * marks the point of attachment. AMC = Cc1cc(=O)oc2cc(N*)ccc12; βNA = c1ccc2cc(N*)ccc2c1; Cbz = O=C(OCc1ccccc1)*; Boc = CC(C)(C)OC(=O)*

Legend:
Assay type in all cases: biochemical, S. cerevisiae
[1] = system: background activity in membranes of kex2[YEp24] cells; experiment: Endopeptidase activity in membranes from kex2 cells transformed with the vector YEp24 alone (background activity)
Procedure: (§1) Permeabilization of whole yeast cells with the non-ionic detergent Brij 58, preparation of crude membrane fractions, and measurement of protein concentration were conducted by the methods described previously (Julius et al., 1983, supra), incorporated herein by reference. To measure peptidase activity, samples of permeabilized cells or membrane material were added to a reaction mixture containing 0.1-0.5 mM fluorogenic peptide substrate (added from a 20 mM stock dissolved in DMSO) and 200 mM HEPES-Tris (pH 7.0), in a final volume of 0.4 ml. Following incubation for 30 min at 37° C., whole cells were removed by centrifugation in a microfuge (Eppendorf) and membrane material was removed by Ba(OH)2 -ZnSO4 precipitation. The amount of fluorescence formed in the supernatant solution was determined in a fluorescence spectrophotometer (Perkin-Elmer, Model MPF-44B), set either at an excitation wavelength of 335 nm and an emission wavelength of 410 nm (for measurement of β-naphthylamine) or at an excitation wavelength of 380 nm and an emission wavelength of 460 nm (for measurement of 7-amino-4-methyl-coumarin, AMC). To determine the number of moles of substrate hydrolyzed, the fluorescence yield of samples was compared to a standard curve prepared with known concentrations of authentic AMC dissolved in the same buffer.
(§2) Cells of strain XBH1615A that had been transformed with the plasmids
(§3) indicated, or that contained pJ2B in integrated form, were grown in SCUra
(§4) and membranes were prepared as described in the Experimental.
(§5) Endopeptidase activity was assayed as described in the Experimental. All
(§6) substrates tested were present at 0.1 mM.
(§7) Endopeptidase activity was assayed using Boc--GlnArgArg--MCA as the
(§8) substrate, as outlined in the Experimental. All inhibitors were added fro
(§9) a 0.1 M stock dissolved in dimethyl sulfoxide. All values given were
(§10) corrected for the slight effects of addition of this solvent alone.

[2] = biological target: T1, KEX2 endopeptidase (kex2[YEp24-pJ2B] membranes) (Saccharomyces cerevisiae, UniProt P13134); experiment: Endopeptidase activity in membranes from kex2 cells carrying multicopy plasmid pJ2B (over-produced specific endopeptidase); conditions: for Relative Ratio: kex2[YEp24-pJ2B] relative to kex2[YEp24] = [1.0]; for Rate of hydrolysis, membranes from kex2 cells carrying pJ2B versus membranes from kex2 cells carrying YEp24: membrane fractions, depending on the experiment
T1 construct: not only includes the KEX2 gene, but also the necessary transcriptional and translational regulatory signals for expression in yeast; expressed in transfected cells; host or cells: S. cerevisiae XBH16-15A (MATalpha kex2-1) carrying YEp24-pJ2B
T1 sequence (P13134 114-814): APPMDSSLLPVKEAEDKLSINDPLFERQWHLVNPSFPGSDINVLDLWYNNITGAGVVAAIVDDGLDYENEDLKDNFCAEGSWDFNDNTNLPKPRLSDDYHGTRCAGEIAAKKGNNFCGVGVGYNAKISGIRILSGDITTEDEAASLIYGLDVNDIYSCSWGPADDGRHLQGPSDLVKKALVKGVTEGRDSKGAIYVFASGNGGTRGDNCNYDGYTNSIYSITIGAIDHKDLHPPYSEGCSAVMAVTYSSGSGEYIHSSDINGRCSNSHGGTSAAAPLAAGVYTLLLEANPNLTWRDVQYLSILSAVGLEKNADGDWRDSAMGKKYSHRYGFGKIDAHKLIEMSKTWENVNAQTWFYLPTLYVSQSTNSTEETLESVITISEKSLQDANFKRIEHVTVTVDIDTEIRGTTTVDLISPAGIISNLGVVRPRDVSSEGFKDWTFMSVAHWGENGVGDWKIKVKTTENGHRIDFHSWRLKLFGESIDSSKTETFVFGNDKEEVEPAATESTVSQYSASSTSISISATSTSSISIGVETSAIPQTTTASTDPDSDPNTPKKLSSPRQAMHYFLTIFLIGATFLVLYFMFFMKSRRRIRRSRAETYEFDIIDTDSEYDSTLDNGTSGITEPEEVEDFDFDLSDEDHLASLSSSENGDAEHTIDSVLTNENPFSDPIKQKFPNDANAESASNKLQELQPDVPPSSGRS
Procedure: as §1, §2, §3, §4, §5, §6, §7, §8
a 0.1 M stock dissolved in dimethyl sulfoxide.

[3] = biological target: T2, KEX2 endopeptidase (kex2::pJ2B membranes) (Saccharomyces cerevisiae, UniProt P13134); experiment: Endopeptidase activity in membranes from kex2 cells containing pJ2B in integrated form; conditions: for Relative Ratio: kex2::pJ2B relative to kex2[YEp24] = [1.0]
T2 construct: not only includes the KEX2 gene, but also the necessary transcriptional and translational regulatory signals for expression in yeast; expressed in transfected cells; host or cells: S. cerevisiae XBH16-15A (MATalpha kex2-1) containing pJ2B in integrated form; crude membranes
Procedure: as §1, §2, §3, §4, §5, §6, §7, §8, §9, §10

[4] = biological target: T3, KEX2 endopeptidase (Brij 58-permeabilized kex2 cells carrying pJ2B) (Saccharomyces cerevisiae, UniProt P13134); experiment: Peptidase activity in detergent-permeabilized kex2 cells carrying pJ2B; conditions: for Rate of hydrolysis, kex2 cells carrying pJ2B versus kex2 cells harboring the vector alone: detergent-permeabilized cells; for Rate of hydrolysis relative to the lysine-containing substrate (Boc-GluLysLys-MCA), times faster: detergent-permeabilized kex2 cells carrying pJ2B
T3 construct: not only includes the KEX2 gene, but also the necessary transcriptional and translational regulatory signals for expression in yeast; expressed in transfected cells; host or cells: S. cerevisiae XBH16-15A (MATalpha kex2-1) carrying YEp24-pJ2B
Procedure: as §1

[5] = biological target: T4, KEX2 endopeptidase (lysate of XBH16-15A carrying YEp24-pJ2B) (Saccharomyces cerevisiae, UniProt P13134); experiment: Release of endopeptidase activity from membranes by detergent treatment
T4 construct: not only includes the KEX2 gene, but also the necessary transcriptional and translational regulatory signals for expression in yeast; expressed in transfected cells; host or cells: S. cerevisiae XBH16-15A (MATalpha kex2-1) carrying YEp24-pJ2B
Procedure: as §1
Strain XBH1615A carrying the KEX2 gene on a multicopy plasmid (YEp24pJ2B)
was grown to midexponential phase in SCUra. The cells were collected by
centrifugation and a lysate was prepared as described in the Experimental
The lysate was divided into two equal portions, one of which was treated
with the nonionic detergent Triton X100 at a final concentration of 1%.
Samples of both the original lysate and the detergenttreated lysate were
saved and the remainder of each was separated into a crude membrane
fraction (P100) and a soluble fraction (S100) by centrifugation at 100,00
× g for 1 hr for endopeptidase activity using
Boc--GlnArgArg--MCA as the substrate, as given in the Experimental.

[6] = strain kex2[YEp24], substrate 0.1 mM, membranes
[7] = strain kex2[YEp24-pJ2B], substrate 0.1 mM, membranes
[8] = strain kex2::pJ2B, substrate 0.1 mM, membranes
[9] = kex2[YEp24], Triton X-100 1% + 5 mM TPCK, substrate Boc-GlnArgArg-MCA
[10] = kex2[YEp24], Triton X-100 1%, substrate Boc-GlnArgArg-MCA
[11] = kex2[YEp24-pJ2B], Triton X-100 1% + 5 mM TPCK, substrate Boc-GlnArgArg-MCA
[12] = kex2[YEp24-pJ2B], Triton X-100 1%, substrate Boc-GlnArgArg-MCA
[13] = kex2::pJ2B, Triton X-100 1% + 5 mM TPCK, substrate Boc-GlnArgArg-MCA
[14] = kex2::pJ2B, Triton X-100 1%, substrate Boc-GlnArgArg-MCA
[15] = +1% Triton X-100, P100 crude membrane fraction
[16] = +1% Triton X-100, S100 soluble fraction

Cc1cc(=O)oc2cc(NC(=O)[C@H](CCCNC(=N)N)NC(=O)[C@H](CCCNC(=N)N)NC(=O)[C@H](CCC(N)=O)NC(=O)OC(C)(C)C)ccc12 [Boc--GlnArgArg--MCA, Boc-GlnArgArg-7-amino-4-methyl-coumarin] (Boc-Gln-Arg-Arg-{AMC})
Specific Activity [1, 6]: 5.0 pmoles AMC formed/μg protein 10
Relative Ratio ([2]; substrate 0.1 mM): 20.2
Rate of hydrolysis, membranes from kex2 cells carrying pJ2B versus membranes from kex2 cells carrying YEp24 [2]: 20- to 35 fold
Specific Activity [2, 7]: 100.8 pmoles AMC formed/μg protein 10
Relative Ratio ([3]; substrate 0.1 mM): 3.3
Specific Activity [3, 8]: 16.7 pmoles AMC formed/μg protein 10
Rate of hydrolysis, kex2 cells carrying pJ2B versus kex2 cells harboring the vector alone [4]: six- to ninefold greater
Rate of hydrolysis relative to the lysine-containing substrate (Boc-GluLysLys-MCA), times faster [4]: ~30 times

Cc1cc(=O)oc2cc(NC(=O)[C@H](CCCCN)NC(=O)[C@H](CCCCN)NC(=O)[C@H](CCC(=O)O)NC(=O)OC(C)(C)C)ccc12 [Boc--GluLysLys--MCA, Boc-GluLysLys-MCA] (Boc-Glu-Lys-Lys-{AMC})
Specific Activity [1, 6]: 0.3 pmoles AMC formed/μg protein 10
Relative Ratio ([2]; substrate 0.1 mM): 6.3
Rate of hydrolysis relative to Boc-GlnArgArg-MCA, times more slowly ([2]; membrane fractions of kex2 cells carrying pJ2B): about 50 times
Rate of hydrolysis, membranes from kex2 cells carrying pJ2B versus membranes from kex2 cells carrying YEp24 [2]: about six-fold
Specific Activity [2, 7]: 1.9 pmoles AMC formed/μg protein 10
Relative Ratio ([3]; substrate 0.1 mM): 1.7
Specific Activity [3, 8]: 0.5 pmoles AMC formed/μg protein 10
Rate of hydrolysis, kex2 cells carrying pJ2B versus kex2 cells harboring the vector alone [4]: six- to ninefold greater

C[C@H](NC(=O)OCc1ccccc1)C(=O)N[C@@H](CCCNC(=N)N)C(=O)N[C@@H](CCCNC(=N)N)C(=O)Nc1ccc2ccccc2c1 [CBZ-AlaArgArg-β-naphthylamide] (Cbz-Ala-Arg-Arg-βNA)
Rate of hydrolysis, kex2 cells carrying pJ2B versus kex2 cells harboring the vector alone [4]: six- to ninefold greater
Rate of hydrolysis relative to the lysine-containing substrate (Boc-GluLysLys-MCA), times faster [4]: ~30 times

Triton X-100
Inhibition [1, 9]: 76%
Specific Activity [1, 9]: 1.2 pmoles/μg/10 min
Inhibition [1, 10]: 71%
Specific Activity [1, 10]: 1.5 pmoles/μg/10 min
Susceptibility of the background activity to inhibition ([1]; kex2 cells transformed with YEp24 alone): greatly reduced
Relative Ratio ([2]; Triton X-100 1% + 5 mM TPCK): 127.4
Inhibition [2, 11]: 0%
Specific Activity [2, 11]: 152.9 pmoles/μg/10 min
Inhibition [2, 12]: 0%
Specific Activity [2, 12]: 155.0 pmoles/μg/10 min
Susceptibility of the specific KEX2 endopeptidase to inhibition or inactivation ([2]; kex2 cells transformed with plasmid pJ2B, comparisons are to the background activity): slightly activated
Relative Ratio ([3]; Triton X-100 1% + 5 mM TPCK): 9.4
Inhibition [3, 13]: 34%
Specific Activity [3, 13]: 11.4 pmoles/μg/10 min
Inhibition [3, 14]: 26%
Specific Activity [3, 14]: 12.9 pmoles/μg/10 min
% of Recovery ([5]; +1% Triton X-100, P100 + S100): 94%
% of Total [5, 15]: 19%
Specific Activity [5, 15]: 50.0 pmoles/μg/10 min
% of Total [5, 16]: 75%
Specific Activity [5, 16]: 200.0 pmoles/μg/10 min
Specific Activity ([5]; +1% Triton X-100, whole lysate, substrate Boc-GlnArgArg-MCA): 265.0 pmoles/μg/10 min
Solubilization of the specific KEX2 endopeptidase from membranes ([5]; Triton X-100 at final concentration of 1%): readily solubilized from membranes
